B1: IFN-γ: interferon-gamma (PeproTech), precision autophagy modulator (protein, UniProt P01579 24-161, looked up)
Interferon gamma: QDPYVKEAENLKKYFNAGHSDVADNGTLFLGILKNWKEESDRKIMQSQIVSFYFKLFKNFKDDQSIQKSVETIKEDMNVKFFNSNKKKRDDFEKLTNYSVTDLNVQRKAIHELIQVMAELSPAAKTGKRKRSQMLFRG

test system: THP-1 cells; assay: High content analysis of LC3 puncta in THP-1 cells (TRIM family screen conditions); type: cell-based, human; settings: IFN-γ 4 h
Protocol: (A) THP-1 cells were subjected to TRIM knockdown, treated with 1,000 U/mL IFN-γ for 4 h, and high content (HC) analysis was performed using a Cellomics HCS scanner (epifluorescence) and iDEV software. HC (magenta, endogenous LC3B immunofluorescence [IF]; blue, nuclei stained with Hoechst). Mask overlay, software-defined objects (primary objects, cell outlines; internal secondary objects, LC3 puncta). (B) Average count of LC3 puncta per cell from cells treated as in (A) (Data from two 96-well plates with identical siRNA arrangements; the corresponding data are shown in Supplementary FIG. 1C). Encircled are INF-γ-treated wells (right) and wells with vehicle controls (bottom left). TRIM knockdowns that reduced LC3 puncta readout in both two experiments by 3 SDs (horizontal dot lines) from the average of IFN-γ-treated controls (horizontal solid line) are indicated by corresponding TRIM numbers (open circle). TRIMs that were chosen in follow-up experiments in FIG. 1C are also indicated with number. (C) Similar to (B), except that THP-1 cells were subjected to specific TRIM or scrambled (Scr; control) knockdown, and were analyzed in more than quadruplicate manner. […] (E) THP-1 cells were treated with TRIM20 or Scr siRNAs, treated with or without IFN-γ for 4 h in the presence of bafilomycin A1, and LC3-II conversion was determined by immunoblots. […]

How did the “autophagy induction (LC3 puncta per cell)” value turn out when B1 was run?
The value was “induced autophagy”.

test system: autophagy; assay: Autophagy assays identifying autophagy modulators; type: cell-based; settings: not given

For `CC(C)COCC(CN(Cc1ccccc1)c1ccccc1)N1CCCC1` (stereo not shown) [bepridil], which “activity as autophagy modulator” value is on record?
The value was “agonists or inducers of autophagy”.

Which “activity as autophagy modulator” value does the source give for `CN(Cc1cc(Br)cc(Br)c1N)C1CCCCC1` [bromhexine] here?
Its value is “agonists or inducers of autophagy”.

For `CCN(CC)CCOc1ccc(C(=C(Cl)c2ccccc2)c2ccccc2)cc1.O=C(O)CC(O)(CC(=O)O)C(=O)O` [clomiphene citrate (Z,E)], which “activity as autophagy modulator” value is on record?
The value was “agonists or inducers of autophagy”.

For `CCCCc1cc2ccccc2c(OCCN(C)C)n1` [dimethisoquin], which “activity as autophagy modulator” value is on record?
The value was “agonists or inducers of autophagy”.

For `O=C(Nc1ccccc1)OCC(CN1CCCCC1)OC(=O)Nc1ccccc1` (stereo not shown) [diperodon], which “activity as autophagy modulator” value is on record?
The value was “agonists or inducers of autophagy”.

How did the “activity as autophagy modulator” value turn out when `CNCC(O)c1ccc(OC(=O)C(C)(C)C)c(OC(=O)C(C)(C)C)c1` (stereo not shown) [dipivefrin] was run?
The value was “agonists or inducers of autophagy”.

`COC(=O)Nc1nc2cc(C(=O)c3ccc(F)cc3)ccc2[nH]1` [flubendazole] was tested. Which “activity as autophagy modulator” value did it give?
The value was “agonists or inducers of autophagy”.

With `COCCCC/C(=N\OCCN)c1ccc(C(F)(F)F)cc1` [fluvoxamine] as the molecule, how does the “activity as autophagy modulator” value read?
The value was “agonists or inducers of autophagy”.

How did the “activity as autophagy modulator” value turn out when `CC12CC3CC(C)(C1)CC(N)(C3)C2` [memantine] was run?
Its value is “agonists or inducers of autophagy”.

How did the “activity as autophagy modulator” value turn out when `CN1CCCC(CC2c3ccccc3Sc3ccccc32)C1` (stereo not shown) [metixene] was run?
Its value is “agonists or inducers of autophagy”.

`CNCCC=C1c2ccccc2C=Cc2ccccc21` [norcyclobenzaprine] was tested. Which “activity as autophagy modulator” value did it give?
Its value is “agonists or inducers of autophagy”.

How did the “activity as autophagy modulator” value turn out when `CNCCC=C1c2ccccc2CCc2ccccc21` [nortriptyline] was run?
The value was “agonists or inducers of autophagy”.

Which “activity as autophagy modulator” value does the source give for `CC(=O)[O-].[Hg+][c]1ccccc1` [phenylmercuric acetate] here?
The value was “antagonists or inhibitors of autophagy”.

Which “activity as autophagy modulator” value does the source give for `CC[N+](C)(CC)CCC[n+]1c(-c2ccccc2)c2cc(N)ccc2c2ccc(N)cc21.[I-].[I-]` [propidium iodide] here?
The value was “agonists or inducers of autophagy”.

How did the “activity as autophagy modulator” value turn out when `N#Cc1c(Cl)c(Cl)c(Cl)c(C#N)c1Cl` [tetrachlorisophthalonitrile] was run?
The value was “antagonists or inhibitors of autophagy”.

test system: TRIM21; assay: TRIM21 mRNA levels by quantitative RT-PCR in THP-1 cells; type: cell-based, human; settings: 1,000 U/ml IFN-γ for indicated times
Protocol: (A) THP-1 cells were treated with 1,000 U/ml of IFN-γ for indicated times, and TRIM21 mRNA levels were determined by quantitative RT-PCR. (B) Co-immunoprecipitation analysis of GFP-TRIM20 with Flag-TRIM21 in HEK293 cells extracts. (C) Knockdown efficacy of TRIM21 level was examined by immunoblotting. (D) Levels of dimerized IRF3 were assessed by native PAGE from THP-1 cells subjected to TRIM21 or control knockdown, untreated with IFN-γ, and transfected with herring testis DNA (HT-DNA). (E and F) THP-1 cells subjected to TRIM21 or control knockdown were infected with a single-round infection HIV1 virus in the presence of 200 U/mL IFN-γ for 20 h, and (E) the levels of dimerized IRF3 or (F) mRNA levels of IFN-β were determined. […]
(§1) Detection of IRF3 dimerization was performed by native polyacrylamide gel electrophoresis (PAGE) as previously described (Takahasi et al., 2003). Quantitative RT-PCR was performed as previously described (Kimura et al., 2013) using the following primer sets: ULK1, ([…], […]); BECN1, ([…], […]); ACTIN, ([…], […]); TRIM1, ([…], […]); TRIM5, ([…], […]); TRIM8, ([…], […]); TRIM16, ([…], […]); TRIM20, ([…], […]); TRIM21, ([…], […]); TRIM22, ([…], […]); TRIM28, ([…], […]); TRIM56, ([…], […]); and TRIM65, ([…], […]). […]

For B1, which TRIM21 expression is on record?
Its TRIM21 expression is “transiently induced”.

test system: TRIM20; assay: TRIM20 mRNA levels by quantitative RT-PCR in THP-1 cells; type: cell-based, human; settings: escalating doses for 4 h or 1,000 U/ml for indicated times
Protocol: (A and B) High content image analysis of LC3 puncta in (A) THP-1 cells or (B) human MDM cells treated with IFN-γ for 4 h. HC and mask overlays are as in FIG. 1. (C) Screen data from FIG. 1B showing average±range. (D) Knockdown efficacy of TRIMs were determined by RT-PCR. (E and F) THP-1 cells were treated with (E) escalating doses of IFN-γ for 4 h or (F) 1,000 U/ml of IFN-γ for indicated times, and TRIM20 mRNA levels were determined by quantitative RT-PCR. Values are standardized to (E) no IFN-γ control or (F) 0 h time point. (G) THP-1 cells were subjected to TRIM20 or scrambled siRNA, treated with IFN-γ for 4 h, and HC analysis performed. (H) Knockdown of TRIM20 mRNA levels was examined by quantitative RT-PCR. Values are standardized to control (Scr, scrambled; no IFN-γ). (I) LC3-II conversion in HEK293 cells transfected with GFP-TRIM20 (T20) or GFP. […]
as §1

Which TRIM20 expression does the source give for B1 here?
The TRIM20 expression was “responsive”.

test system: primary human macrophages; assay: High content analysis of LC3 puncta in primary human macrophages; type: cell-based; settings: IFN-γ 4 h
Protocol: (A and B) High content image analysis of LC3 puncta in (A) THP-1 cells or (B) human MDM cells treated with IFN-γ for 4 h. HC and mask overlays are as in FIG. 1. (C) Screen data from FIG. 1B showing average±range. (D) Knockdown efficacy of TRIMs were determined by RT-PCR. (E and F) THP-1 cells were treated with (E) escalating doses of IFN-γ for 4 h or (F) 1,000 U/ml of IFN-γ for indicated times, and TRIM20 mRNA levels were determined by quantitative RT-PCR. Values are standardized to (E) no IFN-γ control or (F) 0 h time point. (G) THP-1 cells were subjected to TRIM20 or scrambled siRNA, treated with IFN-γ for 4 h, and HC analysis performed. (H) Knockdown of TRIM20 mRNA levels was examined by quantitative RT-PCR. Values are standardized to control (Scr, scrambled; no IFN-γ). (I) LC3-II conversion in HEK293 cells transfected with GFP-TRIM20 (T20) or GFP. Data, means±SE, n≥3 experiments, except panel (C). Scale bars, 5 μm. *P<0.05, ^†P≥0.05 (t test in (B) or ANOVA (other panels)).
High content imaging and analysis was performed using a Cellomics V^TI HCS scanner and iDEV software (ThermoScientific). […] Epifluorescnece images were machine analyzed using present scanning parameters and object mask definitions. Hoechst 33342 staining were used to automatically detect cellular outlines based on background staining of the cytoplasm, and the mean count of LC3 puncta per cell was determined.

Which “autophagy induction (LC3 puncta per cell)” value does the source give for B1 here?
The value was “induced autophagy”.

From patent US10610564B2, “IRGM and precision autophagy controls for antimicrobial and inflammatory disease states and methods of detection of autophagy” (STC.UNM, priority 2015, dated 2020)
